How the values were obtained:
Type in all cases: biochemical
CYP98A3 [1] = biological target: T1, CYP98A3 (Arabidopsis thaliana, UniProt O22203); assay: HPLC and LC-MS of caffeoyl shikimate formed by plant microsomes; settings: 100 μM substrate; 0.2 mM NADPH; pH 7.0; 28 °C; microsomes from N. benthamiana expressing the enzyme
T1 construct: full-length, untagged; transient expression in Nicotiana benthamiana leaves with TBSV P19, leaf microsomes (also yeast WAT11 microsomes)
T1 sequence (O22203 1-508): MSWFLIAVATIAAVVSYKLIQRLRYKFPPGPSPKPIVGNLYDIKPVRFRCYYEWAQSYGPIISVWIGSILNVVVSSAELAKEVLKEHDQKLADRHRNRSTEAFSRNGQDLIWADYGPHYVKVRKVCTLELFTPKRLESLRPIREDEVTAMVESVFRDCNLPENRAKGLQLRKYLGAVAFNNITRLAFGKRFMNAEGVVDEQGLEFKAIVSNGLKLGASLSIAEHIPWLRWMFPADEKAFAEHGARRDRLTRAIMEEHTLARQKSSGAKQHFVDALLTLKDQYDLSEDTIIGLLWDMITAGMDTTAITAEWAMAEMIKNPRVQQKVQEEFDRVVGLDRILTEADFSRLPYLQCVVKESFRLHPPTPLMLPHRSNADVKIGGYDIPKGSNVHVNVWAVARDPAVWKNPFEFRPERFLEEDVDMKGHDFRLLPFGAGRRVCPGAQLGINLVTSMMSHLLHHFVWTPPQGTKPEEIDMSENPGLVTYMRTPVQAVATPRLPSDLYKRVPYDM

CYP98A22 [2] = biological target: T2, CYP98A22 (Ruta graveolens, UniProt H9LJF9); assay: LC-MS of caffeoyl shikimate formed by plant microsomes; settings: 0.2 mM NADPH; 20 mM phosphate pH 7.0; 28 °C; 30 min; microsomes from N. benthamiana expressing the enzyme
T2 construct: full-length, 508 residues, untagged; transient expression in Nicotiana benthamiana leaves with TBSV P19, leaf microsomes
From the text: LC-MS of caffeoyl shikimate formed by plant microsomes on CYP98A22

CYP98A22 [3] = biological target: T2, CYP98A22; assay: LC-MS of caffeoyl quinate formed by plant microsomes; settings: 0.2 mM NADPH; 20 mM phosphate pH 7.0; 28 °C; 30 min; microsomes from N. benthamiana expressing the enzyme
From the text: LC-MS of caffeoyl quinate formed by plant microsomes on CYP98A22

CYP98A3 [4] = biological target: T1, CYP98A3; assay: HPLC and LC-MS of caffeoyl quinate formed by plant microsomes; settings: 100 μM substrate; 0.2 mM NADPH; pH 7.0; 28 °C; microsomes from N. benthamiana expressing the enzyme

T2 sequence (H9LJF9 entry or part of it): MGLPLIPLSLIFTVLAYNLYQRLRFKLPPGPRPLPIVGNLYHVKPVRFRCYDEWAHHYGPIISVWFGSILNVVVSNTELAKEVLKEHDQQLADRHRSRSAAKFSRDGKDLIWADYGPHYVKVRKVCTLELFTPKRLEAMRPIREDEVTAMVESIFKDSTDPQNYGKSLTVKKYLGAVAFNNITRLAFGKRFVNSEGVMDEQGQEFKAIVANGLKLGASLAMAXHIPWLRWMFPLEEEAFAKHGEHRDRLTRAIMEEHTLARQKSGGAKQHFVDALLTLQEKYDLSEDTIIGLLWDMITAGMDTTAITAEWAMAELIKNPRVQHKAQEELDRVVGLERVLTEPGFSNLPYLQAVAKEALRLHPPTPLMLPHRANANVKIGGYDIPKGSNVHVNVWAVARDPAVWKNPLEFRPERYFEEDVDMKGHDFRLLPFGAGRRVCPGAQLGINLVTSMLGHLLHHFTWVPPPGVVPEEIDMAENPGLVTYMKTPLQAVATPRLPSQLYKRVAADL

Km (CYP98A22 [2]) [µM] | Km (CYP98A22 [3]) [µM] | SMILES | HPLC and LC-MS of caffeoyl shikimate formed by plant microsomes (CYP98A3 [1]) | HPLC and LC-MS of caffeoyl quinate formed by plant microsomes (CYP98A3 [4])
24 ± 7 | – | O=C(/C=C/c1ccc(O)cc1)O[C@@H]1CC(C(=O)O)=C[C@@H](O)[C@H]1O [p-coumaroyl shikimate] | both p-coumaroyl quinate and p-coumaroyl shikimate were hydroxylated to their caffeic counterparts | –
– | 7 ± 5 | O=C(/C=C/c1ccc(O)cc1)O[C@@H]1C[C@](O)(C(=O)O)C[C@@H](O)[C@H]1O [p-coumaroyl quinate] | – | both p-coumaroyl quinate and p-coumaroyl shikimate were hydroxylated to their caffeic counterparts

Source: article PMC3493272, “CYP98A22, a phenolic ester 3’-hydroxylase specialized in the synthesis of chlorogenic acid, as a new tool for enhancing the furanocoumarin concentration in Ruta graveolens” (BMC Plant Biology, 2012)
